Activity calls are given as the source filed them.
How the values were obtained:
[1] = target: Peroxisome proliferator-activated receptor gamma/Nuclear receptor coactivator 2 (Homo sapiens, UniProt P37231); experiment: (§1) TR-FRET dose response biochemical High Throughput Screening assay for agonists of the steroid receptor coactivator 2 (SRC-2) recruitment by the peroxisome proliferator-activated receptor gamma (PPAR gamma): non-selective agonists. [Related pubchem assays: 1297, 1032 ]; assay type: functional
[2] = target: Peroxisome proliferator-activated receptor gamma/Nuclear receptor coactivator 1 (Homo sapiens, UniProt P37231); experiment: as §1, with “1 (SRC-1)” for “2 (SRC-2)”, “assays (depositor defined):AID1300, AID1808, AID504735, AID631]” for “assays: 1297, 1032 ]”; assay type: protein assay
[3] = target: Peroxisome proliferator-activated receptor gamma/Nuclear receptor coactivator 3 (Homo sapiens, UniProt P37231); experiment: as §1, with “3 (SRC-3)” for “2 (SRC-2)”, “1301 (Confirmation screen.), 1048 (Primary screen.)]” for “1297, 1032 ]”; assay type: functional
Sequence of Peroxisome proliferator-activated receptor gamma/Nuclear receptor coactivator 3 (P37231 whole entry): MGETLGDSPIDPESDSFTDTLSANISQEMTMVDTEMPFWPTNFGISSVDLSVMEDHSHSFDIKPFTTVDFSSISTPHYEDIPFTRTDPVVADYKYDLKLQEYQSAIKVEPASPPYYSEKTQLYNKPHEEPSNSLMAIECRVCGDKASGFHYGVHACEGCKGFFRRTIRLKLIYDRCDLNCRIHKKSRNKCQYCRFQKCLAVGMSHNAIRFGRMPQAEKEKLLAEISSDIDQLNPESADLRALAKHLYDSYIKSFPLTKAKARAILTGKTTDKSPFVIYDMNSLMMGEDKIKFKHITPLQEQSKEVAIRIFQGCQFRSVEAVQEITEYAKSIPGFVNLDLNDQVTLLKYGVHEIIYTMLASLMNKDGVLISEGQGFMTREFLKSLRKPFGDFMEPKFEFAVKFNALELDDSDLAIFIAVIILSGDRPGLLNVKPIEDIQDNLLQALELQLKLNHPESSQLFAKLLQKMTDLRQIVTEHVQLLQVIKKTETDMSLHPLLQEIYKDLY
Sequence of Peroxisome proliferator-activated receptor gamma/Nuclear receptor coactivator 3 (Q9Y6Q9 whole entry, further chain): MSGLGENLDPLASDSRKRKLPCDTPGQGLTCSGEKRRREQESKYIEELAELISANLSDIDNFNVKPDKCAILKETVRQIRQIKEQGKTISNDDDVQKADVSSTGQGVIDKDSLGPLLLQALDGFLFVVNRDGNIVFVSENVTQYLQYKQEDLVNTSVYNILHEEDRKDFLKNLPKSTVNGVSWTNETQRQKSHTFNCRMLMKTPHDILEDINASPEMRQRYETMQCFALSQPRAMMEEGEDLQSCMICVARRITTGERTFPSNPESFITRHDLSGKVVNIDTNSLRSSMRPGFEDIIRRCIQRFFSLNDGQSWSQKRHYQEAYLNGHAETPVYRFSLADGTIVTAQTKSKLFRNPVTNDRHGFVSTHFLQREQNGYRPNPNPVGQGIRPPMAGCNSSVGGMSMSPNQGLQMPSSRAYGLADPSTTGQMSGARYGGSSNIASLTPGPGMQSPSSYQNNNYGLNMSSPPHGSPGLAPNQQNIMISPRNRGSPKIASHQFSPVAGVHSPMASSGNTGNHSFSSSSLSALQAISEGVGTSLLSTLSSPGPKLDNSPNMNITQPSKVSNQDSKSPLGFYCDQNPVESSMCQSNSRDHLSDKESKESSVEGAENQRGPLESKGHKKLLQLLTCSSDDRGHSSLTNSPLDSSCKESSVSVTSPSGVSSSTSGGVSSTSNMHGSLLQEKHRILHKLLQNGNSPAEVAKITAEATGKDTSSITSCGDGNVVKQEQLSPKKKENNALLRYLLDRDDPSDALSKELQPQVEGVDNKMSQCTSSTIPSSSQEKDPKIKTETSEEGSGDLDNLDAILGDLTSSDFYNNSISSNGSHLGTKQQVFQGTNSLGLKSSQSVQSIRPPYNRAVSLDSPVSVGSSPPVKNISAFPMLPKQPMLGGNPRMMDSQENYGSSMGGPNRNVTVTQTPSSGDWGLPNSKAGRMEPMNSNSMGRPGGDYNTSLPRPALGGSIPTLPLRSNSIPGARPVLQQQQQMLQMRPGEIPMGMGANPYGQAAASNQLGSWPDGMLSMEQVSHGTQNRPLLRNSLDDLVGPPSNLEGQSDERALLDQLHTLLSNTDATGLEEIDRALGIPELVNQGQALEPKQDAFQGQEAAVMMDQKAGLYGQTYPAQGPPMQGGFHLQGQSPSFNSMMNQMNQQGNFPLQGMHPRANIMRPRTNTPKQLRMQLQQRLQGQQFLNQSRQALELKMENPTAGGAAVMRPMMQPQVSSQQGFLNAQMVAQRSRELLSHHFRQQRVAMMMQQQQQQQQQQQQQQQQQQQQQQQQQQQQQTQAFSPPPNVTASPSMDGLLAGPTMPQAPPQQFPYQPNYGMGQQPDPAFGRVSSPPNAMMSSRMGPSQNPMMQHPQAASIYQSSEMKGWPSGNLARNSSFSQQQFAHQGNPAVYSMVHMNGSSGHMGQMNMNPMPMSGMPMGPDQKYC

Cytochrome P450 3A4 = Cytochrome P450 3A4 (Homo sapiens, UniProt P08684);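 further: CYP3A4 tested as one member of a cytochrome P450 panel screen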
Sequence of Cytochrome P450 3A4 (P08684 whole entry): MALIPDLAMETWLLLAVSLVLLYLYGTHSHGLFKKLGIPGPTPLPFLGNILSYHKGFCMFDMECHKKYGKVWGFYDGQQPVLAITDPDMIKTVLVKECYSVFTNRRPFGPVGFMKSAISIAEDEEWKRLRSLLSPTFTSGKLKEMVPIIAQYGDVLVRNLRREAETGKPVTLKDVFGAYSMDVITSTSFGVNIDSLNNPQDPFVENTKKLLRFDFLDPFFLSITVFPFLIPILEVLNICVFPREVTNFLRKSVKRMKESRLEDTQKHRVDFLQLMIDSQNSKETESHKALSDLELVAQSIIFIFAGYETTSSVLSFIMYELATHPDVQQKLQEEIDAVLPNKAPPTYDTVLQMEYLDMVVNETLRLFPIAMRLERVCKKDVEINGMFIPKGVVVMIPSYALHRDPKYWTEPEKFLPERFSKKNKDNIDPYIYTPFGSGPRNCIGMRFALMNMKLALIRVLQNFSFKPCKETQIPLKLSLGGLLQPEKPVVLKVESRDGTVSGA

[4] = Trypanosoma cruzi growth suppression in host cells – NIH3T3 host cells, beta-gal luminescence, confirmation (AID 2044); assay type: functional, cell-based;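 further: intracellular parasites grown in NIH/3T3 mouse fibroblasts as host cells; luminescent beta-galactosidase reporter signal from transgenic T. cruzi replicating inside host cells; inhibitors lower the luminescence signal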
[5] = NIH3T3 cell viability loss – ATP luminescence, mouse fibroblasts, counter-screen, dose response (AID 2010); assay type: functional, cell-based;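 further: cells exposed to compound for about 90 hours before reading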
[6] = target: 26S proteasome non-ATPase regulatory subunit 14 (Homo sapiens, UniProt O00487); experiment: inhibition of proteasome subunit RPN11 – biochemical, fluorescence polarization, uHTS hits, confirmation (AID 602368); assay type: functional
Sequence of 26S proteasome non-ATPase regulatory subunit 14 (O00487 whole entry): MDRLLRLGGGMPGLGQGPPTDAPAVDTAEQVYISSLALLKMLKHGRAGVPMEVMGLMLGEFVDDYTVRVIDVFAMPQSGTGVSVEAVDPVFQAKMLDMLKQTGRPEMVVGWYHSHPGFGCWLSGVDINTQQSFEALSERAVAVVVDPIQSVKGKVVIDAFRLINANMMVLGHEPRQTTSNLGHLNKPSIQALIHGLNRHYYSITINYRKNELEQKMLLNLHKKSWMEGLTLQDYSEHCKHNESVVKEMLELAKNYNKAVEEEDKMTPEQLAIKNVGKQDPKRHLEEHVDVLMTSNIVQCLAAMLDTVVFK

[7] = target: 72 kDa type IV collagenase (Homo sapiens, UniProt P08253); experiment: Dose Response validation of uHTS RPN11 inhibitor hits using a MMP-2 Fluorescence assay.; assay type: functional
Sequence of 72 kDa type IV collagenase (P08253 whole entry): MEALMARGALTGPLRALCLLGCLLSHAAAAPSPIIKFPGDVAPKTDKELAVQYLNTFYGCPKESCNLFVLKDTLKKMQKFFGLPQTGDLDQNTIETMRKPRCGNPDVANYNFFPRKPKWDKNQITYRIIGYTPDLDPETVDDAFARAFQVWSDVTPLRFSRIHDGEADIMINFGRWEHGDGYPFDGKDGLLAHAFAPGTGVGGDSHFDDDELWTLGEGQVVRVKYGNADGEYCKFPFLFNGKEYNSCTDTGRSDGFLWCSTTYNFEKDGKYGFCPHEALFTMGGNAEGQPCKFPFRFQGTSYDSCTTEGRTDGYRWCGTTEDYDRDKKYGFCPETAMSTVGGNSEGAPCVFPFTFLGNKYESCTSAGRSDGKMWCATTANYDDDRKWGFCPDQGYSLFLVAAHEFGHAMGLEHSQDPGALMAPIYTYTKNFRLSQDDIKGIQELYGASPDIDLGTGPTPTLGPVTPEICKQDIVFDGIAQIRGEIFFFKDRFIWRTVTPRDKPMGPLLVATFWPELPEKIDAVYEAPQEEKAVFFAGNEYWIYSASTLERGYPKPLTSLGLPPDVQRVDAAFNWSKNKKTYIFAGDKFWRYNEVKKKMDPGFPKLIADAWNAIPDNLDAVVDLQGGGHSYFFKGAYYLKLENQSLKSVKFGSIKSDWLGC

Prothrombin = Prothrombin (Bos taurus, UniProt P00735); experiment: thrombin protease inhibitors – biochemical, fluorescence polarization, uHTS hits, dose response (AID 602369); assay type: functional
[8] = Luminescence Cell-Based Dose Retest to Confirm Inhibitors of Cancer Stem Cells. [Related pubchem assays (depositor defined):AID2717, AID2721]; assay type: functional; details: Homo sapiens
H9c2 = experiment: cells; assay type: functional, cell-based; details: Rattus norvegicus, H9c2, Myocardium;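 further: confirmatory concentration-response retest of ultra-high-throughput screening hits for modulation of myocardial damage; cell death induced by hydrogen peroxide oxidative stress; compound pretreatment for 60 min then peroxide exposure for 2 h; potency is for protecting the cells against peroxide damage rather than for killing them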
HEK293 = experiment: EBV LMP1 TES2 canonical NF-kB signalling blockers – cell-based, HEK293, luciferase, cherry-pick, dose response (AID 588343); assay type: functional; details: Homo sapiens
[9] = target: T1, Microphthalmia-associated transcription factor (Homo sapiens, UniProt O75030); experiment: reducers of TRPM1 reporter luminescence, concentration series – cell-based, SK-MEL-5, cherry-picked, set 3, MITF inhibitor project, dose response (AID 493073); assay type: functional;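 further: SK-MEL-5 melanoma cells with luciferase driven by the MITF target TRPM1 promoter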
T1 sequence (O75030 whole entry): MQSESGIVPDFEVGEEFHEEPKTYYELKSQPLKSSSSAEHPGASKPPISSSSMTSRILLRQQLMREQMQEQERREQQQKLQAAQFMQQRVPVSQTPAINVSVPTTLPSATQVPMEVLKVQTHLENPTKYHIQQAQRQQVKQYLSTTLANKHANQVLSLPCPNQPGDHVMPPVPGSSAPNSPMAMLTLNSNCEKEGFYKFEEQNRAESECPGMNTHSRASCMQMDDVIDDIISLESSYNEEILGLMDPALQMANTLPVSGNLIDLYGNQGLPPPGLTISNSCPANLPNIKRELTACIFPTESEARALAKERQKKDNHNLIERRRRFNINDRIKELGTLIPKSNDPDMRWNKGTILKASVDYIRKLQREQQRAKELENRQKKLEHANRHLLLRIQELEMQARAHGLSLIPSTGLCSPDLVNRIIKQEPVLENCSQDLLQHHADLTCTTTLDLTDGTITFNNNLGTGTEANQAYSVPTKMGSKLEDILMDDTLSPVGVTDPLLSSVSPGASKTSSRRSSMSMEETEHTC

[10] = loss of viability in HepG2 cells – cell-based, CellTiter-Glo, cherry-picked, cytotoxicity control for Shn3 inhibitor project, dose response (AID 624134); assay type: functional
[11] = reduction of Shn3 3'UTR-driven luciferase in osteoblasts – cell-based, Clone20 osteoblasts, firefly luciferase, cherry-picked, dose response (AID 624132); assay type: functional;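 further: firefly luciferase luminescence from reporter carrying the Shn3 3'UTR in osteoblasts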
[12] = non-specific 3'UTR reporter inhibition in Clone20-Shn3RL – cell-based, Renilla luciferase, cherry-picked, counter-screen for Shn3 inhibitor project, dose response (AID 624133); assay type: functional

With `COc1cc2c(cc1OC)C1=NC(=O)CN1C(SCc1ccccc1C)=N2` the EC50 [1] was 82.7 µM (not active), the EC50 [2] was > 79.4 µM (inactive) and the EC50 [3] was > 79.4 µM (not active).
With `Cc1cc(Cl)ccc1NC(=O)CN1CCC(C(O)(c2ccccc2)c2ccccc2)CC1` the AC50 (Cytochrome P450 3A4) was “inconclusive”.
With `Cl.OCCN1CCN(CCOc2cccc(Cl)c2)CC1` the EC50 [4] was 0.413 µM (active), the EC50 [5] was > 60 µM (inconclusive) and the AC50 (Cytochrome P450 3A4) was “inconclusive”.
In the case of `O=C(CC1OC(=O)c2ccccc21)Nc1cc(Cl)ccc1N1CCCC1` (stereo not given), the IC50 [6] is reported as 14.1 µM (active), the IC50 [7] is reported as > 100 µM (inactive) and the IC50 (Prothrombin) is reported as > 100 µM (inactive).
For `CCOC(=O)c1c(NC(=O)C(c2ccccc2)c2ccccc2)sc2c1C1CCN2CC1.Cl`, the AC50 [8] was 1.09 µM (active), the EC50 [4] was 1.86 µM (active) and the EC50 [5] was > 60 µM (not active). For the same compound, the AC50 (Cytochrome P450 3A4) was “inconclusive”.
With `COc1ccc(-c2oc3ncnc(NCCN4CCOCC4)c3c2-c2ccc(OC)cc2)cc1` the IC50 (H9c2) was > 79 µM (inactive) and the AC50 (HEK293) was 9.19 µM (active).
In the case of `Cc1ccc(-c2nnc(O)c3ccccc23)cc1S(=O)(=O)NCC1CCCO1` (stereo not given), the AC50 [9] is reported as 53.2 µM (active) and the IC50 (H9c2) is reported as 15.3 µM (active).
For `Cc1cc2c(cc(C(=O)OC(C(=O)NC3CCCCC3)C(C)C)n2C)o1` (stereo not given), the AC50 [10] was 55.8 µM (active), the AC50 [11] was 5.9 µM (active) and the AC50 [12] was 7.23 µM (active).
For `COc1cccc(C(=O)CC(=O)C(=O)Nc2ccc(C)cc2Cl)c1`, the AC50 (HEK293) was 35 µM (active).
For `Cc1sc2nc(CSCC(=O)Nc3ccccc3C#N)[nH]c(=O)c2c1C`, the IC50 [6] was 6.2 µM (active), the IC50 [7] was > 100 µM (inactive) and the IC50 (Prothrombin) was 8.26 µM (active).
